Test results taken from patent US9220672B2, “Peptide for use in the treatment of skin conditions” (ORGANOBALANCE GMBH, priority 2011, dated 2015).

Key:
Assay type in all cases: cell-based
S. epidermidis [1] = experiment: S. epidermidis growth stimulation, in-vitro hole plate assay on tellurite-TSA; conditions: 40 μl of 1 mg/ml solution per well, 35° C., 24 h, vs water control
Protocol: To this effect, an S. epidermidis growth simulation assay was employed, using potassium tellurite as the growth indicator, observed in the assay as brown zones. An S. epidermidis log phase culture at 1:200 (containing approximately 1×10^7 cfu/ml of bacteria) was used as the working culture in the experiment.
The working culture was plated onto tellurite-TSA, after which 5 mm diameter holes were respectively punched into the agar for forming the testing wells. 40 μl of a solution containing the tetrapeptide at a concentration of 1 mg/ml were then added to a first and second well, and the same volume of water was added as the control to a third well. The Petri dish was then incubated at 35° C. for 24 h.

S. epidermidis [2] = experiment: S. epidermidis in vitro liquid assay (microtiter plate, OD600nm); conditions: SCD-bouillon (1:2), pH 6.5, vs control devoid of additive
Protocol: A Microtiter plate having wells with a respective volume of 200 μl was used for the S. epidermidis in vitro liquid assay. To this effect, a 24 h cell culture of S. epidermidis was diluted 1:200 thus affording an optical density OD600nm of 0.06 in SCD-bouillon (1:2). The samples used in the experiment further contained the inventive tetrapeptide H-Lys(H-Asp-NH2)-Ala-Glu-NH2 in respective concentrations of 1 mg/ml and 0.2 mg/ml. As control assay, samples containing 1 mg/ml of a mixture containing Alanine, Glutamine, Lysine, and Asparagine in equal parts and samples containing no further components in addition to S. epidermidis were respectively employed. The pH of all of the samples was 6.5.

S. aureus = S. aureus in vitro liquid assay (microtiter plate, OD600nm); conditions: 1 mg/ml, SCD-bouillon (1:2), pH 6.5, vs control devoid of additive
Protocol: An S. aureus in vitro liquid assay was performed on a Microtiter plate having wells with a respective volume of 200 μl. To this effect, a 24 h cell culture of S. aureus was diluted 1:500 thus affording an optical density OD600nm of 0.05 in SCD-bouillon (1:2). One of the samples used in the experiment further contained the inventive tetrapeptide H-Lys(H-Asp-NH2)-Ala-Glu-NH2 in a concentration of 1 mg/ml. The pH of the samples was 6.5.

Q: How did the “growth of S. epidermidis (tellurite growth indicator zone around well)” value (S. epidermidis [1]) turn out when CC(NC(=O)C(N)CCCCNC(=O)CC(N)C(N)=O)C(=O)NC(CCC(=O)O)C(N)=O (stereo not drawn) [H-Lys(H-Asp-NH2)-Ala-Glu-NH2] was run?
A: able to stimulate the growth

Q: What about the “growth of S. epidermidis (tellurite growth indicator zone around well)” value (S. epidermidis [1]; listed as inventive tetrapeptide) of the same compound?
A: clearly stimulated

Q: What about the “growth of S. epidermidis (optical density OD600nm over incubation time)” value (S. epidermidis [2]; 0.2 mg/ml) of the same compound?
A: stimulation is already apparent

Q: What about the “growth of S. epidermidis (optical density OD600nm over incubation time)” value (S. epidermidis [2]; 1 mg/ml) of the same compound?
A: clearly stimulates the growth

Q: And the “growth of S. aureus (optical density OD600nm over incubation time)” value (S. aureus)?
A: clearly inhibited
